pIC50: −log10 of the molar value.
molecular target: T1, Human Factor XIIa (Homo sapiens, UniProt P00748); assay: Determination of FXIIa inhibitory activity in vitro (fluorogenic substrate H-DPro-Phe-Arg-AFC); type: biochemical; settings: 25° C., residual enzyme activity (initial rate)
T1 construct: Human Factor XIIa (Enzyme Research Laboratories) was incubated; purchased Enzyme Research Laboratories
T1 sequence (P00748 373-615 limits assumed): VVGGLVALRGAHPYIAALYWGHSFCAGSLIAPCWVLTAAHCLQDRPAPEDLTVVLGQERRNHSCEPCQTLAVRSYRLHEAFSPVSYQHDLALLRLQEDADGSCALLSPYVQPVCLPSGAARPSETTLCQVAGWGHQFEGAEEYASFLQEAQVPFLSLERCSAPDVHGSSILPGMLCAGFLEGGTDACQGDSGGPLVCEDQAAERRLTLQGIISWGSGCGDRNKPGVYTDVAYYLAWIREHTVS
T1 sequence (P00748 20-372 partner limits assumed): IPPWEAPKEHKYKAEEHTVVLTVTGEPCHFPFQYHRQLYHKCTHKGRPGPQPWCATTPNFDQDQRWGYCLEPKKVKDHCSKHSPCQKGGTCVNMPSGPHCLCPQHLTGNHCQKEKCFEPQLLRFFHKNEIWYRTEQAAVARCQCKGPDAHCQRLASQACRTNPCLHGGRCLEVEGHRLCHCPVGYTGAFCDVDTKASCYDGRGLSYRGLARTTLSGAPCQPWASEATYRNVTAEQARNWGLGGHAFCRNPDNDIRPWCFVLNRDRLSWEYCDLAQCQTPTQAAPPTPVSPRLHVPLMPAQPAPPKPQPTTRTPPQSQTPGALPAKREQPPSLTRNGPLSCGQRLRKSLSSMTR

Row | Compound | pIC50
1 | CC(C)NC(=O)N(C)c1ccc(OCc2sc(C(=O)NCc3ccc4c(N)nccc4c3)cc2Cl)cc1 [Example 7.04] | 4.40 to 5.00
2 | Nc1nccc2cc(CNC(=O)c3cc(Cl)c(COc4cccc(N5CCNCC5)c4)s3)ccc12 [Example 7.05] | 5.52 to 6.00
3 | Nc1nccc2cc(CNC(=O)c3cc(Cl)c(COCCN4CCCCC4)s3)ccc12 [Example 7.07] | 5.00 to 5.52
4 | Nc1nccc2cc(CNC(=O)c3cc(Cl)c(COCc4ccccn4)s3)ccc12 [Example 7.10] | 4.40 to 5.00
5 | CS(=O)(=O)c1cccc(COCc2sc(C(=O)NCc3ccc4c(N)nccc4c3)cc2Cl)c1 [Example 7.11] | 4.40 to 5.00
6 | Nc1nccc2cc(CNC(=O)c3cc(Cl)c(COCC4CCOCC4)s3)ccc12 [Example 7.13] | 5.00 to 5.52
7 | Nc1nccc2cc(CNC(=O)c3cc(Cl)c(COCCn4ccnc4)s3)ccc12 [Example 7.16] | 5.00 to 5.52
8 | Nc1nccc2cc(CNC(=O)c3cc(Cl)c(COCC4CCN(Cc5ccccc5)CC4)s3)ccc12 [Example 7.18] | 4.40 to 5.00
9 | Nc1nccc2cc(CNC(=O)c3cc(Cl)c(COCc4cccnc4)s3)ccc12 [Example 7.19] | 5.00 to 5.52
10 | Nc1nccc2cc(CNC(=O)c3cc(Cl)c(COCc4cncnc4)s3)ccc12 [Example 7.21] | 5.00 to 5.52
11 | Nc1nccc2cc(CNC(=O)c3cc(Cl)c(COCCCN4CCCCC4)s3)ccc12 [Example 7.23] | 5.52 to 6.00
12 | Nc1nccc2cc(CNC(=O)c3cc(Cl)c(COCCCN4CCOCC4)s3)ccc12 [Example 7.25] | 5.00 to 5.52
13 | CN(C)CCCCOCc1sc(C(=O)NCc2ccc3c(N)nccc3c2)cc1Cl [Example 7.26, N-((1-Aminoisoquinolin-6-yl)methyl)-4-chloro-5-((4-(dimethylamino)butoxy)methyl)thiophene-2-carboxamide] | 5.52 to 6.00
14 | CN(C)c1ccc(COCc2sc(C(=O)NCc3ccc4c(N)nccc4c3)cc2Cl)cc1 [Example 7.30] | 4.40 to 5.00
15 | Nc1nccc2cc(CNC(=O)c3cc(Cl)cs3)ccc12 [Example 25.01] | 4.40 to 5.00
16 | Cc1sc(C(=O)NCc2ccc3c(N)nccc3c2)cc1Br [Example 25.02] | 5.00 to 5.52
17 | Nc1nccc2cc(CNC(=O)c3ccc(Cl)s3)ccc12 [Example 25.03] | 4.40 to 5.00
18 | Cc1sc(C(=O)NCc2ccc3c(N)nccc3c2)cc1Cl [Example 25.04] | 5.00 to 5.52
19 | Nc1nccc2cc(CNC(=O)c3cc(Cl)c(Cc4ccccc4O)s3)ccc12 [Example 25.05] | 4.40 to 5.00

Row | Compound | pIC50
20 | CN1CCC(CCc2sc(C(=O)NCc3ccc4c(N)nccc4c3)cc2Cl)CC1 [Example 25.11] | 5.52 to 6.00
21 | Nc1nccc2cc(CNC(=O)c3nc(CCC4CCNCC4)cs3)ccc12 [Example 25.14] | 5.52 to 6.00
22 | CN1CCC(CNc2csc(C(=O)NCc3ccc4c(N)nccc4c3)c2)CC1 [Example 25.17] | 4.40 to 5.00
23 | Cc1nc2[nH]ccc2c(C)c1CNC(=O)c1cc(Cl)c(C)s1 [Example 25.101, 4-Chloro-N-((4,6-dimethyl-1H-pyrrolo[2,3-b]pyridin-5-yl)methyl)-5-methylthiophene-2-carboxamide] | 4.40 to 5.00
24 | Cc1sc(C(=O)NCc2cc3c(N)nccc3s2)cc1Cl [Example 25.103, N-((4-aminothieno[3,2-c]pyridin-2-yl)methyl)-4-chloro-5-methylthiophene-2-carboxamide] | 4.40 to 5.00
25 | Cc1sc(C(=O)NCc2ccc3c(N)nccc3c2F)cc1Cl [Example 25.104, N-((1-Amino-5-fluoroisoquinolin-6-yl)methyl)-4-chloro-5-methylthiophene-2-carboxamide] | 4.40 to 5.00
26 | Cc1cc(N)nc(C)c1CNC(=O)c1cc(Cl)c(C)s1 [Example 25.105, N-[(6-Amino-2,4-dimethylpyridin-3-yl)methyl]-4-chloro-5-methylthiophene-2-carboxamide] | 4.15 to 4.40
27 | Nc1nccc2cc(CNC(=O)c3cc4cccc(Cl)c4s3)ccc12 [Example 25.204] | 4.40 to 5.00
28 | Nc1nccc2cc(CNC(=O)c3cc4cc(F)ccc4s3)ccc12 [Example 25.205] | 5.00 to 5.52
29 | CN1CCC(Nc2cccc3sc(C(=O)NCc4ccc5c(N)nccc5c4)cc23)CC1 [Example 25.208] | 5.00 to 5.52
30 | Cc1sc(C(=O)NCc2ccc3c(N)nccc3c2)c(NCC2CCN(C)CC2)c1C [Example 26.11] | 5.00 to 5.52
31 | Cc1cc(CCC2CCN(C)CC2)c(C(=O)NCc2ccc3c(N)nccc3c2)s1 [Example 26.12] | 5.00 to 5.52
32 | Cc1nsc(C(=O)NCc2ccc3c(N)nccc3c2)c1NCC1CCN(C)CC1 [Example 26.15] | 5.00 to 5.52
33 | CN1CCC(CNc2ncsc2C(=O)NCc2ccc3c(N)nccc3c2)CC1 [Example 26.16, N-((1-Aminoisoquinolin-6-yl)methyl)-4-(((1-methylpiperidin-4-yl)methyl)amino)thiazole-5-carboxamide] | 5.52 to 6.00
34 | CN1CCC(CCCn2nccc2C(=O)NCc2ccc3c(N)nccc3c2)CC1 [Example 35.08] | 5.52 to 6.00
35 | CCOc1ccc(Cn2nccc2C(=O)NCc2ccc3c(N)nccc3c2)cc1 [Example 35.09] | 4.40 to 5.00
36 | Cc1c(C(=O)NCc2ccc3c(N)nccc3c2)cc(-c2ccccc2)n1CCCN1CCOCC1 [Example 51.01] | 4.40 to 5.00
37 | CN1CCC(CCn2ccc(C(=O)NCc3ccc4c(N)nccc4c3)n2)CC1 [Example 51.06] | 5.52 to 6.00
38 | CN1CCC(CCCn2ccc(C(=O)NCc3ccc4c(N)nccc4c3)n2)CC1 [Example 51.07] | 5.52 to 6.00

Results, then the molecule that gave them:

Row | pIC50 | Compound
39 | 5.52 to 6.00 | Nc1nccc2cc(CNC(=O)c3cc(Cl)c(COc4ccc(N5CCNCC5)cc4)s3)ccc12 [Example 7.03, N-((1-Aminoisoquinolin-6-yl)methyl)-4-chloro-5-((4-(piperazin-1-yl)phenoxy)methyl)thiophene-2-carboxamide]
40 | 5.00 to 5.52 | Nc1nccc2cc(CNC(=O)c3cc(Cl)c(COCCN4CCOCC4)s3)ccc12 [Example 7.06]
41 | 5.52 to 6.00 | CN1CCC(COCc2sc(C(=O)NCc3ccc4c(N)nccc4c3)cc2Cl)CC1 [Example 7.08]
42 | 5.00 to 5.52 | Nc1nccc2cc(CNC(=O)c3cc(Cl)c(COCCN4CCS(=O)(=O)CC4)s3)ccc12 [Example 7.09]
43 | 4.40 to 5.00 | Nc1nccc2cc(CNC(=O)c3cc(Cl)c(COCCC4CCOCC4)s3)ccc12 [Example 7.12]
44 | 5.00 to 5.52 | Nc1nccc2cc(CNC(=O)c3cc(Cl)c(COCCN4CCCC4)s3)ccc12 [Example 7.14]
45 | 5.00 to 5.52 | CN(C)CCOCc1sc(C(=O)NCc2ccc3c(N)nccc3c2)cc1Cl [Example 7.15]
46 | 4.40 to 5.00 | CN(CCOCc1sc(C(=O)NCc2ccc3c(N)nccc3c2)cc1Cl)Cc1ccccc1 [Example 7.17]
47 | 5.00 to 5.52 | Nc1nccc2cc(CNC(=O)c3cc(Cl)c(COCc4ccncc4)s3)ccc12 [Example 7.20]
48 | 5.52 to 6.00 | CCN(CC)CCCOCc1sc(C(=O)NCc2ccc3c(N)nccc3c2)cc1Cl [Example 7.22]
49 | 4.40 to 5.00 | Nc1nccc2cc(CNC(=O)c3cc(Cl)c(COCCCc4ccncc4)s3)ccc12 [Example 7.24]
50 | 5.00 to 5.52 | Cn1cc(CCCOCc2sc(C(=O)NCc3ccc4c(N)nccc4c3)cc2Cl)cn1 [Example 7.27]
51 | 4.40 to 5.00 | Nc1nccc2cc(CNC(=O)c3cc(Cl)c(COCCCn4cccn4)s3)ccc12 [Example 7.28]
52 | 4.40 to 5.00 | Nc1nccc2cc(CNC(=O)c3cc(Cl)c(COCCCc4ccccn4)s3)ccc12 [Example 7.29]
53 | 5.52 to 6.00 | CN(C)CCCOCc1sc(C(=O)NCc2ccc3c(N)nccc3c2)cc1Cl [Example 7.31]
54 | 4.40 to 5.00 | COc1ccc(O)c(Cc2sc(C(=O)NCc3ccc4c(N)nccc4c3)cc2Cl)c1 [Example 25.06]
55 | 5.00 to 5.52 | CN1CCC(CCc2csc(C(=O)NCc3ccc4c(N)nccc4c3)c2)CC1 [Example 25.12]
56 | 5.00 to 5.52 | Nc1nccc2cc(CNC(=O)c3cc(Br)cs3)ccc12 [Example 25.13]
57 | > 6.00 | CN1CCC(CCc2csc(C(=O)NCc3ccc4c(N)nccc4c3)n2)CC1 [Example 25.15, N-((1-Aminoisoquinolin-6-yl)methyl)-4-(2-(1-methylpiperidin-4-yl)ethyl)thiazole-2-carboxamide]
58 | 4.40 to 5.00 | CN1CCC(Nc2csc(C(=O)NCc3ccc4c(N)nccc4c3)c2)CC1 [Example 25.16]
59 | 4.40 to 5.00 | Nc1nccc2cc(CNC(=O)c3cc4c(F)cccc4s3)ccc12 [Example 25.206]
60 | 5.00 to 5.52 | CN1CCC(CNc2cccc3sc(C(=O)NCc4ccc5c(N)nccc5c4)cc23)CC1 [Example 25.209]
61 | 5.00 to 5.52 | CN1CCC(CNc2ccsc2C(=O)NCc2ccc3c(N)nccc3c2)CC1 [Example 26.13]
62 | 4.40 to 5.00 | Cc1nsc(C(=O)NCc2ccc3c(N)nccc3c2)c1NCC1CCNCC1 [Example 26.14]
63 | 4.40 to 5.00 | CN1CCC(CCn2nccc2C(=O)NCc2cc3c(N)nccc3s2)CC1 [Example 46.01, N-((4-aminothieno[3,2-c]pyridin-2-yl)methyl)-1-(2-(1-methylpiperidin-4-yl)ethyl)-1H-pyrazole-5-carboxamide]
64 | 4.40 to 5.00 | CC(=O)N1CCC(CCn2ccc(C(=O)NCc3ccc4c(N)nccc4c3)n2)CC1 [Example 51.08]

Source: US20220289727A1, “ENZYME INHIBITORS” (KALVISTA PHARMACEUTICALS LIMITED, priority 2019, published 2022)
